Patent US12527873B2, “Glycocalyx mimetic coatings” (The Regents of The University of California, priority 2019, dated 2026)

What was measured:
[1] = system: stimulated human cardiac microvascular endothelial cells (HCMECs); assay: Platelet activation on stimulated HCMECs (NAP-2, PF-4 in supernatant); type: cell-based; conditions: DS-IkL 30 μM, IkL peptide 450 μM, DS 30 μM, platelets 1 hour on TNF-α/IL-1β stimulated HCMECs
Excerpt: Enhanced platelet activation and binding have been implicated in a multitude of chronic inflammatory diseases, including acute coronary and pulmonary syndromes (Lisman, T, Cell Tissue Res. 2018; 371(3):567-576). Activated platelets release cytokines such as platelet factor 4 (PF-4) and neutrophil activating peptide 2 (NAP-2) that can in turn activate neutrophils (Pitchford, S., D. Pan, and H. C. Welch. Curr. Opin. Hematol. 2017; 24(1):23-31). To test if treatment of inflamed endothelial cells with DS-IkL could reduce the activation of platelets as assessed by PF-4 and NAP-2 levels, platelets were allowed to interact with stimulated human cardiac microvascular endothelial cells (HCMECs, PromoCell) under standard culture conditions for 1 hour before supernatant was collected. Stimulation media was prepared by diluting to 0.4 ng/ml tumor necrosis factor alpha (TNF-α) and 0.3 ng/ml interleukin 1 beta (IL-1β) in complete endothelial growth medium MV (PromoCell).

[2] = target: T1, E-selectin (Homo sapiens, UniProt P16581); assay: PMN binding to E-selectin coated microspheres (flow cytometry); type: cell-based; set-up: purchased R&D Systems; conditions: IkL peptide 450 μM, DS-IkL15 30 μM; p<0.05; FIG. 9
T1 sequence (P16581 22-610): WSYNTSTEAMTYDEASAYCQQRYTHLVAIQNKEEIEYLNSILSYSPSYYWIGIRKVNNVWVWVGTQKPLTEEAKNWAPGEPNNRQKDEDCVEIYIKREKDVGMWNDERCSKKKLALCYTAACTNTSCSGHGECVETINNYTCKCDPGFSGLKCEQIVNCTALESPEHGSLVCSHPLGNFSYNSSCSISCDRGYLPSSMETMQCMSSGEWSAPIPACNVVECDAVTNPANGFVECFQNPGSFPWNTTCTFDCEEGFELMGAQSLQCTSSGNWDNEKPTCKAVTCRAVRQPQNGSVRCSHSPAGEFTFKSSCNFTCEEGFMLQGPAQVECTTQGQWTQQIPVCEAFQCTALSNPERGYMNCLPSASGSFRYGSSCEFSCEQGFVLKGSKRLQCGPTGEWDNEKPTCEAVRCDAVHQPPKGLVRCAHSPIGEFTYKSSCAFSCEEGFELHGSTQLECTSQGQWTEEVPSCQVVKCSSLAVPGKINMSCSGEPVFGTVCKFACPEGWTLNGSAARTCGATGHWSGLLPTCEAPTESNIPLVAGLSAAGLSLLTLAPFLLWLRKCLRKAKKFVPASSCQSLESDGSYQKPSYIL
Protocol: To validate the new molecule, fluorescent carboxylate microspheres were coated with recombinant human E-selectin (R&D Systems, Minneapolis, MN) using a PolyLink coupling kit (PolySciences Inc., Warrington, PA). Functionalized microspheres were treated with HBSS^+/+, EC-SEAL (30 μM), DS-IkL10 (30 μM), DS-IkL15 (30 μM), or GMI-1070 ([…]) for one hour. During this time, human neutrophils were isolated from whole blood using an established protocol. Briefly, 6 mL of whole blood were collected into an EDTA coated tube in accordance with the UC Davis Internal Review Board under IRB assurance No. 00004557. Neutrophils were isolated using an EasyStep Direct Human Neutrophil Isolation Kit (Stem Cell Technologies, Vancouver, BC, Canada), centrifuged, and resuspended in HBSS^+/+, with 0.1% human serum albumin (HSA) at 1×10^6 cells/mL. Cells were labeled with fluorescently tagged anti-CD15 for detection. Microspheres were pelleted and resuspended in 100 uL labeled neutrophils, then incubated for 30 minutes at room temperature with rotation (150 rpm). Samples were fixed in 4% PFA and read on an Attune NxT Flow Cytometer. Data was analyzed using FlowJo flow cytometry software (San Diego, Calif.) to determine the top three performing variants. This was repeated 2-6 times for an n of 3-7. […]

[3] = target: T2, P-selectin (Homo sapiens, UniProt P16109); assay: Binding to P-selectin coated surfaces (fluorescently tagged molecule, MFI); conditions: increasing concentrations; MFI normalized to vehicle (HBSS); FIG. 6
T2 sequence (P16109 42-830): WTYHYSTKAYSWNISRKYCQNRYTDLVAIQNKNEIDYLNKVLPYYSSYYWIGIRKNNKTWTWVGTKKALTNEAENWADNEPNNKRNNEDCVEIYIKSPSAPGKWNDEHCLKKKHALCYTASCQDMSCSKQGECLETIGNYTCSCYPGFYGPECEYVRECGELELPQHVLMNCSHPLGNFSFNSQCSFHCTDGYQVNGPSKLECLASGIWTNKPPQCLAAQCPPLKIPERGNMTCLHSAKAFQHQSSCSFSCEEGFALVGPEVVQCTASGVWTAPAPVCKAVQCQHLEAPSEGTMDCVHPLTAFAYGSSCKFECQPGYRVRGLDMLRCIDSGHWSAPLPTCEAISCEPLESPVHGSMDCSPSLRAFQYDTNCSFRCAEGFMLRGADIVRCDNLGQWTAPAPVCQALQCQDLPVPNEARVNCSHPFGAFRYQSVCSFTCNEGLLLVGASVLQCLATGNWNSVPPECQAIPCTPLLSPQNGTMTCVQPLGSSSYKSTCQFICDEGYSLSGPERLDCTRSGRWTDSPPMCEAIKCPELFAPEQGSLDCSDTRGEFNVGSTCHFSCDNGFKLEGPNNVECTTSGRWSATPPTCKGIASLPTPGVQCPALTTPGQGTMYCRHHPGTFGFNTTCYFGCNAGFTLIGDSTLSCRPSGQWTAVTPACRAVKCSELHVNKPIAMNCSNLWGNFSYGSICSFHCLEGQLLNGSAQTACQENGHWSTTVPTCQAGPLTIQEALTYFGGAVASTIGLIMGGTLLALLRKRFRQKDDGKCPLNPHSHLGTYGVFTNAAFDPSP
Protocol: (§1) P- and E-selectin coated surfaces were treated with fluorescently tagged DS-IkL (30 μM, empty bars) or DS (30 μM, filled bars). […] Data are represented as means±SEM. *p<0.05, **p<0.01, ***p<0.001. n=3 independent experiments.

[4] = target: T1, E-selectin; assay: Binding to E-selectin coated surfaces (fluorescently tagged molecule, MFI); conditions: increasing concentrations; MFI normalized to vehicle (HBSS); FIG. 6
Protocol: as §1

| neutrophil adhesion to microspheres [2] | binding to P-selectin coated surfaces [3] | binding to E-selectin coated surfaces [4] | Substance | platelet activation as assessed by NAP-2 ([1]; FIG. 7) | platelet activation as assessed by PF-4 ([1]; FIG. 8) |
| --- | --- | --- | --- | --- | --- |
| approximately 75 % of control |  |  | Ile-(D)lys-Leu-Leu-(D)pro-Hyp-Arg [IkL peptide] | reduced | reduced |
|  | not observed in the DS group | not observed in the DS group | dermatan sulfate [DS] |  |  |
